Test [1] has as its target dephosphorylated FGFR1 (SEQ ID NO: 1, amino acids 458 to 765) (Homo sapiens (Human), UniProt P11362). The test is described as follows: FGFR enzyme binding assay (HTRF tracer displacement), FGFR1. Conditions: 5 nM dephosphorylated FGFR1, average of multiple determinations if made. The method, boiled down:
(§1)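 Kinase and tracer were incubated with compound for 60 minutes at 22° C. Tracer displacement was then measured by HTRF, and results were expressed as POC with 1 μM control inhibitor defining full displacement.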
Background: Time-resolved FRET reads energy transfer from a long-lived donor to a nearby acceptor.

Test [2] addresses phosphorylated FGFR3 (SEQ ID NO: 5, amino acids 449 to 759) (Homo sapiens (Human), UniProt P22607). Nature of the test: FGFR enzyme binding assay (HTRF tracer displacement), FGFR3. Conditions: 5 nM phosphorylated FGFR3, average of multiple determinations if made. The method, boiled down: as §1
In test [3] the target is FGFR1 (SEQ ID NO: 1, amino acids 458-765) (Homo sapiens (Human), UniProt P11362). Nature of the test: LC/MS FGFR1 kobs assay (covalent protein modification). The settings on record: 500 nM FGFR1, 3 μM compound. The class given is binding. In short, it runs like this:
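Covalent labeling of FGFR1 kinase domain (aa 458-765) tracked over time by intact-protein LC/MS after formic acid quench. kobs derived by fitting DMSO-normalized percent unmodified FGFR1 to an exponential decay model.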

Test [4] has as its target HEK-293 cells transfected with dox-inducible human wild type FGFR1 (Homo sapiens (Human), UniProt P11362). The test is described as follows: FGFR1 pERK cell assay. Conditions: HEK-293 dox-inducible FGFR1, 1 hour compound, 100 ng/ml FGF-acidic; maximum concentration 5 μM. It counts as cell-based. The method, boiled down:
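In HEK-293 cells with dox-induced human wild-type FGFR1, compounds (1:3 dilutions, top 5 μM final) were applied 1 h at 37°C before 5 min stimulation with 100 ng/ml FGF-acidic. Phospho-ERK1/2 measured by MSD sandwich immunoassay; IC50 from 4-parameter fit of POC versus vehicle and control compound.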

Test [5] concerns the target FGFR3 (SEQ ID NO: 5, amino acids 449-759) (Homo sapiens (Human), UniProt P22607). The test is described as follows: LC/MS FGFR3 kobs assay (covalent protein modification). It counts as binding. The settings on record: 500 nM FGFR3, 3 μM compound. In short, it runs like this: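 kobs is the rate constant from an exponential-decay fit of percent unmodified kinase, normalized to DMSO controls, averaged over multiple determinations where available. Time-course samples of FGFR1 (458-765) and FGFR3 (449-759) with compound were acid-quenched (0.4% formic acid) and protein adducts quantified by intact-mass LC/MS.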

Test [6] has as its target recombinant human FGFR2 cytoplasmic domain (amino acids 403-822) (Homo sapiens (Human), UniProt P21802). The test is described as follows: FGFR2 enzyme activity assay (LanthaScreen TR-FRET). It counts as biochemical. Conditions: 15 μM ATP, 20 min incubation at 22° C., average of multiple determinations if made, read-out: FGFR2 Enz FRET IC50. In short, it runs like this: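 Substrate phosphorylation was read by TR-FRET using Eu-PY20 antibody (60 min, 22 °C) after a 20 min, 22 °C reaction. The reaction used 15 μM ATP, 100 nM fluorescent poly-GT peptide and His-tagged FGFR2 403-822 ([…]) at pH 7.5 with 2% DMSO.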

What is called IC50 is the concentration that gives 50% inhibition.

Sequence of FGFR3 (SEQ ID NO: 5, amino acids 449-759) (P22607 449-759): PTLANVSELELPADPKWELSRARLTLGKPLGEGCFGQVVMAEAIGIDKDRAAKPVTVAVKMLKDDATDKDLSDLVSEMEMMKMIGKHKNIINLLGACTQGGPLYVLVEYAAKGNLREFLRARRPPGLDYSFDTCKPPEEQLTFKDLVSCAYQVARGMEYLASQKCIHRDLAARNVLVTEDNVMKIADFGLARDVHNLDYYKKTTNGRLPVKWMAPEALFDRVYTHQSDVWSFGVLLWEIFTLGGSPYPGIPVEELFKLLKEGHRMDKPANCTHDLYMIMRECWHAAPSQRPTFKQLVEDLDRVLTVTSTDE
Sequence of phosphorylated FGFR3 (SEQ ID NO: 5, amino acids 449 to 759) (P22607 449-759): as above
Sequence of recombinant human FGFR2 cytoplasmic domain (amino acids 403-822) (P21802 402-821): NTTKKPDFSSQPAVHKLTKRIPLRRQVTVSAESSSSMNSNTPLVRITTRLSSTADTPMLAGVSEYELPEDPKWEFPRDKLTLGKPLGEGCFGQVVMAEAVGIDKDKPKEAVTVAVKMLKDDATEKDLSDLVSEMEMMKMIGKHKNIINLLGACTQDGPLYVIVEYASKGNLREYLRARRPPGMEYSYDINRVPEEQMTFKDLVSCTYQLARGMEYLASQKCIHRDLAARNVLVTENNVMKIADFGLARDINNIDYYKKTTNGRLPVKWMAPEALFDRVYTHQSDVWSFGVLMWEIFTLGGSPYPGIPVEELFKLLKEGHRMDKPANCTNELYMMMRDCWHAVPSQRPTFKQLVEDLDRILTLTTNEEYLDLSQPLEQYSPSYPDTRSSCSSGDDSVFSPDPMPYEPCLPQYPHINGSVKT
Sequence of FGFR1 (SEQ ID NO: 1, amino acids 458-765) (P11362 458-765): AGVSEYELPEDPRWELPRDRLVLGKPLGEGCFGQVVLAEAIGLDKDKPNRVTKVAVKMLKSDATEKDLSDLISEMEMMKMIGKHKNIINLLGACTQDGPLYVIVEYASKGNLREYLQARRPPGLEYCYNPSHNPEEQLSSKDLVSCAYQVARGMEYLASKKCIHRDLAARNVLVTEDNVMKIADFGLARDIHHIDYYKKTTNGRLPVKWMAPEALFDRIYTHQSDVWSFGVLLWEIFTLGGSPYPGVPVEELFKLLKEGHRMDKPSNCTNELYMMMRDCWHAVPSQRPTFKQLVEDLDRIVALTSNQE
Sequence of dephosphorylated FGFR1 (SEQ ID NO: 1, amino acids 458 to 765) (P11362 458-765): as above
Sequence of HEK-293 cells transfected with dox-inducible human wild type FGFR1 (P11362 22-822): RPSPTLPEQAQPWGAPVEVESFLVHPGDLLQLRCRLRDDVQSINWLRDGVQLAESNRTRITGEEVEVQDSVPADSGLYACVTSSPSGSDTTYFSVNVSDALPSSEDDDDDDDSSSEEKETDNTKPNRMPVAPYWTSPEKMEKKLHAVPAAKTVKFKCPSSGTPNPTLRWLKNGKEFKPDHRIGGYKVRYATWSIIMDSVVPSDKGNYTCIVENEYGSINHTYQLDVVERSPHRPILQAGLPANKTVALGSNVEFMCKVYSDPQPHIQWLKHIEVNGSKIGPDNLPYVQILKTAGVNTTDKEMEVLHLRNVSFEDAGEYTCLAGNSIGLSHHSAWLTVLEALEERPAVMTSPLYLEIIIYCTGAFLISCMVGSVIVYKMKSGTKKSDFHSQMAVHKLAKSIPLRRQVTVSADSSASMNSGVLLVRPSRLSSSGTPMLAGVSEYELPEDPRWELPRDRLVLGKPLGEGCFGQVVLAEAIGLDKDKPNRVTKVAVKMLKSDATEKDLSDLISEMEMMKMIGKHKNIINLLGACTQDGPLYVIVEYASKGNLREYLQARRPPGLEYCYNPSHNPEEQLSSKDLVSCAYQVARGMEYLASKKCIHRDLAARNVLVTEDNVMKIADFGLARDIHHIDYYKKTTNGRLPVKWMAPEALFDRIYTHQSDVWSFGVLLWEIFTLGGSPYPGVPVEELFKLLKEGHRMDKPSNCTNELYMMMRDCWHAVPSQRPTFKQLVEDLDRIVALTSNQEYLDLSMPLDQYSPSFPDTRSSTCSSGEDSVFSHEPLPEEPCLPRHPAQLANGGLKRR

Consider `C=CC(=O)N1CC(C(=O)N2CCN(c3cnc(-c4cc(OC)c5c(C#N)cnn5c4)cn3)CC2)C1` [Example 116, 6-(5-(4-(1-acryloylazetidine-3-carbonyl)piperazin-1-yl)pyrazin-2-yl)-4-methoxypyrazolo[1,5-a]pyridine-3-carbonitrile], for which the IC50 in test [1] is 141 nM; in test [2], 19 nM; in test [4], 1230 nM; in test [6] it was 19 nM. Also, the “FGFR1 Enz kobs” value in test [3] came out at 0.00277 min⁻¹. For the same compound, the “FGFR3 Enz kobs” value in test [5] was 0.02585 min⁻¹.

Turning to `C=CC(=O)N1CC(OC)(C(=O)N2CCC(n3ncc(-c4cc(OC)c5c(Cl)cnn5c4)c3C)CC2)C1` [Example 117, 1-(3-(4-(4-(3-chloro-4-methoxypyrazolo[1,5-a]pyridin-6-yl)-5-methyl-1H-pyrazol-1-yl)piperidine-1-carbonyl)-3-methoxyazetidin-1-yl)prop-2-en-1-one], the IC50 came out at 814 nM in test [1], 19 nM in test [2], 1200 nM in test [4] and 359 nM in test [6]. In test [3], the “FGFR1 Enz kobs” value is 0.00318 min⁻¹. Also, in test [5], the “FGFR3 Enz kobs” value amounted to 0.03885 min⁻¹.

Turning to `C=CC(=O)N1CC(CN2CCC(n3ncc(-c4cc(OC)c5c(Cl)cnn5c4)c3C)CC2)C1` [Example 118, 1-(3-((4-(4-(3-chloro-4-methoxypyrazolo[1,5-a]pyridin-6-yl)-5-methyl-1H-pyrazol-1-yl)piperidin-1-yl)methyl)azetidin-1-yl)prop-2-en-1-one], the 50% inhibitory concentration (IC50) in test [1] came out at 455 nM; in test [2], 9 nM; in test [4], 674 nM; in test [6], 239 nM. For the same compound, the “FGFR1 Enz kobs” value in test [3] turned out to be 0.00303 min⁻¹. Also, in test [5], the “FGFR3 Enz kobs” value is 0.02502 min⁻¹.

On to `C=CC(=O)N1CC(CN2CCC(n3ncc(-c4cc(OC)c5c(Cl)cnn5c4)c3C)CC2)(OC)C1` [Example 119, 1-(3-((4-(4-(3-chloro-4-methoxypyrazolo[1,5-a]pyridin-6-yl)-5-methyl-1H-pyrazol-1-yl)piperidin-1-yl)methyl)-3-methoxyazetidin-1-yl)prop-2-en-1-one], for which the 50% inhibitory concentration (IC50) in test [1] was 565 nM; in test [2], 8 nM; in test [4], 591 nM; in test [6] it was 219 nM. Also, the “FGFR1 Enz kobs” value in test [3] turned out to be 0.00359 min⁻¹. The “FGFR3 Enz kobs” value in test [5] was found to be 0.04536 min⁻¹.

Take `C=CC(=O)N1CC(CN2CCC(n3ncc(-c4cc(OC)c5c(Cl)cnn5c4)c3C)CC2)C1(C)C` (stereo not drawn) [Example 120, 1-(3-((4-(4-(3-chloro-4-methoxypyrazolo[1,5-a]pyridin-6-yl)-5-methyl-1H-pyrazol-1-yl)piperidin-1-yl)methyl)-2,2-dimethylazetidin-1-yl)prop-2-en-1-one]: the IC50 in test [1] worked out at 400 nM; in test [2], 33 nM; in test [4], 523 nM; in test [6] it was 39 nM. Besides, the “FGFR1 Enz kobs” value in test [3] was 0.00068 min⁻¹. Further, the “FGFR3 Enz kobs” value in test [5] amounted to 0.00758 min⁻¹.

For the compound `C=CC(=O)N1CC(F)(C(=O)N2CCC(n3cc(-c4cc(OC)c5c(Cl)cnn5c4)cn3)CC2)C1` [Example 121, 1-(3-(4-(4-(3-chloro-4-methoxypyrazolo[1,5-a]pyridin-6-yl)-1H-pyrazol-1-yl)piperidine-1-carbonyl)-3-fluoroazetidin-1-yl)prop-2-en-1-one], the concentration for half-maximal inhibition (IC50) in test [1] was determined as 114 nM; in test [2], 3 nM; in test [4], 169 nM; in test [6] it was 13 nM. In addition, the “FGFR1 Enz kobs” value in test [3] stood at 0.00369 min⁻¹. Besides, the “FGFR3 Enz kobs” value in test [5] is 0.06393 min⁻¹.

Regarding `C=CC(=O)N1CC(C(=O)N2CCC(n3cc(-c4cc(OC)c5c(Cl)cnn5c4)cn3)CC2)C1` [Example 122, 1-(3-(4-(4-(3-chloro-4-methoxypyrazolo[1,5-a]pyridin-6-yl)-1H-pyrazol-1-yl)piperidine-1-carbonyl)azetidin-1-yl)prop-2-en-1-one], the half-maximal inhibitory concentration (IC50) turned out to be 120 nM in test [1], 7 nM in test [2], 492 nM in test [4] and 12 nM in test [6]. Moreover, the “FGFR1 Enz kobs” value in test [3] amounted to 0.00127 min⁻¹. Also, in test [5], the “FGFR3 Enz kobs” value worked out at 0.01396 min⁻¹.

`C=CC(=O)N1CC(S(=O)(=O)N2CCC(n3cc(-c4cc(OC)c5c(C#N)cnn5c4)cn3)CC2)C1` [Example 134, 6-(1-(1-((1-acryloylazetidin-3-yl)sulfonyl)piperidin-4-yl)-1H-pyrazol-4-yl)-4-methoxypyrazolo[1,5-a]pyridine-3-carbonitrile]: the half-maximal inhibitory concentration (IC50) amounted to 35 nM in test [1], 2 nM in test [2], 96 nM in test [4] and 16 nM in test [6]. In addition, the “FGFR1 Enz kobs” value in test [3] is 0.00288 min⁻¹. Further, in test [5], the “FGFR3 Enz kobs” value worked out at 0.02537 min⁻¹.

Take `C=CC(=O)N1CCN(C(=O)N2CCC(n3cc(-c4cc(OC)c5c(C#N)cnn5c4)cn3)CC2)C[C@@H]1CC#N` [Example 135, (S)-6-(1-(1-(4-acryloyl-3-(cyanomethyl)piperazine-1-carbonyl)piperidin-4-yl)-1H-pyrazol-4-yl)-4-methoxypyrazolo[1,5-a]pyridine-3-carbonitrile]: the 50% inhibitory concentration (IC50) in test [1] amounted to 35 nM; in test [2] it was 3 nM; in test [4], 342 nM; in test [6] it was 4 nM. In test [3], the “FGFR1 Enz kobs” value worked out at 0.0029 min⁻¹. For the same compound, the “FGFR3 Enz kobs” value in test [5] stood at 0.02201 min⁻¹.

Turning to `C#CC(=O)N1CC(C(=O)N2CCC(n3cc(-c4cc(OC)c5c(C#N)cnn5c4)cn3)CC2)C1` [Example 138, 4-methoxy-6-(1-(1-(1-propioloylazetidine-3-carbonyl)piperidin-4-yl)-1H-pyrazol-4-yl)pyrazolo[1,5-a]pyridine-3-carbonitrile], the concentration for half-maximal inhibition (IC50) in test [1] worked out at 27 nM; in test [2] it was 2 nM; in test [4], 116 nM; in test [6] it was 3 nM. In test [3], the “FGFR1 Enz kobs” value is 0.01359 min⁻¹. Further, in test [5], the “FGFR3 Enz kobs” value came to 0.3446 min⁻¹.

Take `COc1cc(-c2cnn(C3CCN(C(=O)C4CN(C(=O)/C=C/CO)C4)CC3)c2)cn2ncc(C#N)c12` [Example 141, (E)-6-(1-(1-(1-(4-hydroxybut-2-enoyl)azetidine-3-carbonyl)piperidin-4-yl)-1H-pyrazol-4-yl)-4-methoxypyrazolo [1,5-a]pyridine-3-carbonitrile]: the 50% inhibitory concentration (IC50) in test [1] was 40 nM; in test [2], 6 nM; in test [4], not below 5000 nM; in test [6], 5 nM. For the same compound, in test [3], the “FGFR1 Enz kobs” value was 0.00014 min⁻¹. Also, in test [5], the “FGFR3 Enz kobs” value is 0.00171 min⁻¹.

As to `COc1cc(-c2cnn(C3CCN(CC4CN(C(=O)/C=C/CN(C)C)C4)CC3)c2)cn2ncc(C#N)c12` [Example 146, (E)-6-(1-(1-((1-(4-(dimethylamino)but-2-enoyl)azetidin-3-yl)methyl)piperidin-4-yl)-1H-pyrazol-4-yl)-4-methoxypyrazolo [1,5-a]pyridine-3-carbonitrile], the IC50 in test [1] came out at 51 nM; in test [2], 4 nM; in test [4] it was 496 nM; in test [6], 2 nM. Further, the “FGFR1 Enz kobs” value in test [3] stood at 0.00306 min⁻¹. Besides, in test [5], the “FGFR3 Enz kobs” value is 0.01542 min⁻¹.
